Source: patent US7192906B2, “Substituted pyrazole derivatives, production process thereof, and herbicide compositions containing the derivatives” (SDS Biotech K.K., priority 2001, dated 2007)

The molecules below were run on Monochoria vaginalis (assay: Test Example 3 paddy field treatment). Details: paddy field treatment, wettable powder, active ingredient 1 kg per hectare, 21st day after the dropping, index 0-5.
Assay type: in vivo
Procedure: (§1) A plastic pot of 130 cm^2 was filled with paddy soil, and soil puddling was carried out to adjust the submerged depth to 4 cm. Subsequently, seeds of Echinochloa crusgalli, Monochoria vaginalis, Ammannia multiflora and Scirpus juncoides were sowed, and rice (Oryza sative, variety: Koshihikari) of two-leaf period was transplanted by 2 rice plants of 1 stub per pot at a depth of 3 cm. On the 10th day after the transplantation, the wettable powder prepared in Formulation Example 1 was diluted with water such that the amount of the active ingredient became 1 kg per hectare, and then dropped to diffuse on the water surface. On the 21st day after the dropping, observation and evaluation were carried out according to the aforesaid criteria.
(§2) Herbicidal activity was evaluated based on the following criteria.
(§3) • 5: herbicidal effect of not less than 90%, or phytotoxicity of 90% or more • 4: herbicidal effect of not less than 70% and less than 90%, or phytotoxicity of 70% or more and less than 90% • 3: herbicidal effect of not less than 50% and less than 70%, or phytotoxicity of 50% or more and less than 70% • 2: herbicidal effect of not less than 30% and less than 50%, or phytotoxicity of 30% or more and less than 50% • 1: herbicidal effect of not less than 10% and less than 30%, or phytotoxicity of 10% or more and less than 30% • 0: herbicidal effect of not less than 0% and less than 10%, or phytotoxicity of 0% or more and less than 10%
For `CON=C(Cn1cc(C)c(-c2ccccc2)n1)C(=O)NC(C)c1ccccc1` (stereo not shown) [Compound 31], the “Herbicidal activity MV” value was 5 (herbicidal effect of not less than 90%, or phytotoxicity of 90% or more).
For `CNC(=O)C(Cn1cc(C)c(-c2ccccc2C)n1)=NOC` [Compound 35], the “Herbicidal activity MV” value was 4 (herbicidal effect of not less than 70% and less than 90%, or phytotoxicity of 70% or more and less than 90%).
With `CNC(=O)C(Cn1cc(C)c(-c2ccc(C(C)C)cc2)n1)=NOC` [Compound 38] the “Herbicidal activity MV” value was 5 (herbicidal effect of not less than 90%, or phytotoxicity of 90% or more).
In the case of `CNC(=O)C(Cn1cc(C)c(-c2ccc(C(F)(F)F)cc2)n1)=NOC` [Compound 40], the “Herbicidal activity MV” value is reported as 5 (herbicidal effect of not less than 90%, or phytotoxicity of 90% or more).
`CNC(=O)C(Cn1cc(C)c(-c2cccc(Br)c2)n1)=NOC` [Compound 49] was tested, and the “Herbicidal activity MV” value was 5 (herbicidal effect of not less than 90%, or phytotoxicity of 90% or more).

These molecules were tested on Ammannia multiflora (assay: Test Example 3 paddy field treatment). Details: paddy field treatment, wettable powder, active ingredient 1 kg per hectare, 21st day after the dropping, index 0-5.
Assay type: in vivo
Procedure: as §1, §2, §3
`CON=C(Cn1cc(C)c(-c2ccccc2)n1)C(=O)NC(C)c1ccccc1` (stereo not shown) [Compound 31] was tested, and the “Herbicidal activity AM” value was 4 (herbicidal effect of not less than 70% and less than 90%, or phytotoxicity of 70% or more and less than 90%).
With `CNC(=O)C(Cn1cc(C)c(-c2ccccc2C)n1)=NOC` [Compound 35] the “Herbicidal activity AM” value was 4 (herbicidal effect of not less than 70% and less than 90%, or phytotoxicity of 70% or more and less than 90%).
In the case of `CNC(=O)C(Cn1cc(C)c(-c2ccc(C(C)C)cc2)n1)=NOC` [Compound 38], the “Herbicidal activity AM” value is reported as 5 (herbicidal effect of not less than 90%, or phytotoxicity of 90% or more).
`CNC(=O)C(Cn1cc(C)c(-c2ccc(C(F)(F)F)cc2)n1)=NOC` [Compound 40] was tested, and the “Herbicidal activity AM” value was 5 (herbicidal effect of not less than 90%, or phytotoxicity of 90% or more).
In the case of `CNC(=O)C(Cn1cc(C)c(-c2cccc(Br)c2)n1)=NOC` [Compound 49], the “Herbicidal activity AM” value is reported as 5 (herbicidal effect of not less than 90%, or phytotoxicity of 90% or more).

Each molecule was assayed on Scirpus juncoides (assay: Test Example 3 paddy field treatment). Details: paddy field treatment, wettable powder, active ingredient 1 kg per hectare, 21st day after the dropping, index 0-5.
Assay type: in vivo
Procedure: as §1, §2, §3
`CON=C(Cn1cc(C)c(-c2ccccc2)n1)C(=O)NC(C)c1ccccc1` (stereo not shown) [Compound 31] was tested, and the “Herbicidal activity SJ” value was 4 (herbicidal effect of not less than 70% and less than 90%, or phytotoxicity of 70% or more and less than 90%).
`CNC(=O)C(Cn1cc(C)c(-c2ccccc2C)n1)=NOC` [Compound 35] was tested, and the “Herbicidal activity SJ” value was 4 (herbicidal effect of not less than 70% and less than 90%, or phytotoxicity of 70% or more and less than 90%).
With `CNC(=O)C(Cn1cc(C)c(-c2ccc(C(C)C)cc2)n1)=NOC` [Compound 38] the “Herbicidal activity SJ” value was 5 (herbicidal effect of not less than 90%, or phytotoxicity of 90% or more).
`CNC(=O)C(Cn1cc(C)c(-c2ccc(C(F)(F)F)cc2)n1)=NOC` [Compound 40] was tested, and the “Herbicidal activity SJ” value was 5 (herbicidal effect of not less than 90%, or phytotoxicity of 90% or more).
With `CNC(=O)C(Cn1cc(C)c(-c2cccc(Br)c2)n1)=NOC` [Compound 49] the “Herbicidal activity SJ” value was 5 (herbicidal effect of not less than 90%, or phytotoxicity of 90% or more).

Each molecule was assayed on Echinochloa crusgalli (assay: Test Example 3 paddy field treatment). Details: paddy field treatment, wettable powder, active ingredient 1 kg per hectare, 21st day after the dropping, index 0-5.
Assay type: in vivo
Procedure: as §1, §2, §3
`CON=C(Cn1cc(C)c(-c2ccccc2)n1)C(=O)NC(C)c1ccccc1` (stereo not shown) [Compound 31] was tested, and the “Herbicidal activity EC” value was 3 (herbicidal effect of not less than 50% and less than 70%, or phytotoxicity of 50% or more and less than 70%).
In the case of `CNC(=O)C(Cn1cc(C)c(-c2ccccc2C)n1)=NOC` [Compound 35], the “Herbicidal activity EC” value is reported as 5 (herbicidal effect of not less than 90%, or phytotoxicity of 90% or more).
In the case of `CNC(=O)C(Cn1cc(C)c(-c2ccc(C(C)C)cc2)n1)=NOC` [Compound 38], the “Herbicidal activity EC” value is reported as 5 (herbicidal effect of not less than 90%, or phytotoxicity of 90% or more).
`CNC(=O)C(Cn1cc(C)c(-c2ccc(C(F)(F)F)cc2)n1)=NOC` [Compound 40] was tested, and the “Herbicidal activity EC” value was 5 (herbicidal effect of not less than 90%, or phytotoxicity of 90% or more).
With `CNC(=O)C(Cn1cc(C)c(-c2cccc(Br)c2)n1)=NOC` [Compound 49] the “Herbicidal activity EC” value was 5 (herbicidal effect of not less than 90%, or phytotoxicity of 90% or more).

The molecules below were run on soybean (Glycine max) (assay: Test Example 1 upland field foliage treatment, crop phytotoxicity). Details: Table 4, upland field foliage treatment, index 0-5.
Assay type: in vivo
Procedure: (§4) A plastic pot of 130 cm^2 was filled with upland soil. Subsequently, weed seeds of Setaria viridis, Digitaria adscendens, Chenopodium album and Stellaria media, and crop seeds of soybean (Glycine max) and wheat (Triticum aestivum), were sowed and covered with soil of about 1 cm thickness. On the 14th day after the sowing, the wettable powder prepared in Formulation Example 1 was diluted with water such that the amount of the active ingredient became 1 kg per hectare, and then uniformly applied to the plant leaf surfaces. On the 21st day after the application, observation and evaluation were carried out according to the criteria described below.
as §2, §3
For `CNC(=O)C(Cn1cc(C)c(-c2ccc(C(F)(F)F)cc2F)n1)=NOC` [Compound 85], the “Herbicidal activity (phytotoxicity) GM: Soybean (Glycine max)” value was 0 (herbicidal effect of not less than 0% and less than 10%, or phytotoxicity of 0% or more and less than 10%).

What follows are molecules tested on wheat (Triticum aestivum) in the same assay as above. Details: Table 4, upland field foliage treatment, index 0-5.
Assay type: in vivo
Procedure: as §4, §2, §3
`CNC(=O)C(Cn1cc(C)c(-c2ccc(C(F)(F)F)cc2F)n1)=NOC` [Compound 85] was tested, and the “Herbicidal activity (phytotoxicity) TA: Wheat (Triticum aestivum)” value was 0 (herbicidal effect of not less than 0% and less than 10%, or phytotoxicity of 0% or more and less than 10%).

Each molecule was assayed on Setaria viridis (assay: Test Example 1 upland field foliage treatment). Details: Table 4, upland field foliage treatment, index 0-5.
Assay type: in vivo
Procedure: as §4, §2, §3
In the case of `CNC(=O)C(Cn1cc(C)c(-c2ccc(C(F)(F)F)cc2F)n1)=NOC` [Compound 85], the “Herbicidal activity SV: Setaria viridis” value is reported as 4 (herbicidal effect of not less than 70% and less than 90%, or phytotoxicity of 70% or more and less than 90%).

The molecules below were run on Digitaria adscendens (assay: Test Example 1 upland field foliage treatment). Details: Table 4, upland field foliage treatment, index 0-5.
Assay type: in vivo
Procedure: as §4, §2, §3
In the case of `CNC(=O)C(Cn1cc(C)c(-c2ccc(C(F)(F)F)cc2F)n1)=NOC` [Compound 85], the “Herbicidal activity DA: Digitaria adscendens” value is reported as 4 (herbicidal effect of not less than 70% and less than 90%, or phytotoxicity of 70% or more and less than 90%).

What follows are molecules tested on Stellaria media (assay: Test Example 1 upland field foliage treatment). Details: Table 4, upland field foliage treatment, index 0-5.
Assay type: in vivo
Procedure: as §4, §2, §3
In the case of `CNC(=O)C(Cn1cc(C)c(-c2ccc(C(F)(F)F)cc2F)n1)=NOC` [Compound 85], the “Herbicidal activity SM: Stellaria media” value is reported as 5 (herbicidal effect of not less than 90%, or phytotoxicity of 90% or more).

The molecules below were run on Chenopodium album (assay: Test Example 1 upland field foliage treatment). Details: Table 4, upland field foliage treatment, index 0-5.
Assay type: in vivo
Procedure: as §4, §2, §3
`CNC(=O)C(Cn1cc(C)c(-c2ccc(C(F)(F)F)cc2F)n1)=NOC` [Compound 85] was tested, and the “Herbicidal activity CA: Chenopodium album” value was 5 (herbicidal effect of not less than 90%, or phytotoxicity of 90% or more).

What follows are molecules tested on Rice (Oryza sativa) (assay: Test Example 3 paddy field treatment, crop phytotoxicity). Details: paddy field treatment, transplanted rice Koshihikari, wettable powder, active ingredient 1 kg per hectare, 21st day after the dropping, index 0-5.
Assay type: in vivo
Procedure: as §1, §2, §3
With `CON=C(Cn1cc(C)c(-c2ccccc2)n1)C(=O)NC(C)c1ccccc1` (stereo not shown) [Compound 31] the “Herbicidal activity OS (phytotoxicity to rice)” value (“Herbicidal activity OS” for short) was 0 (herbicidal effect of not less than 0% and less than 10%, or phytotoxicity of 0% or more and less than 10%).
For `CNC(=O)C(Cn1cc(C)c(-c2ccccc2C)n1)=NOC` [Compound 35], the “Herbicidal activity OS” value was 0 (herbicidal effect of not less than 0% and less than 10%, or phytotoxicity of 0% or more and less than 10%).
`CNC(=O)C(Cn1cc(C)c(-c2ccc(C(C)C)cc2)n1)=NOC` [Compound 38] was tested, and the “Herbicidal activity OS” value was 0 (herbicidal effect of not less than 0% and less than 10%, or phytotoxicity of 0% or more and less than 10%).
`CNC(=O)C(Cn1cc(C)c(-c2ccc(C(F)(F)F)cc2)n1)=NOC` [Compound 40] was tested, and the “Herbicidal activity OS” value was 0 (herbicidal effect of not less than 0% and less than 10%, or phytotoxicity of 0% or more and less than 10%).
In the case of `CNC(=O)C(Cn1cc(C)c(-c2cccc(Br)c2)n1)=NOC` [Compound 49], the “Herbicidal activity OS” value is reported as 1 (herbicidal effect of not less than 10% and less than 30%, or phytotoxicity of 10% or more and less than 30%).
